Experimental data published in patent US11192890B2, “FGFR kinase inhibitors and pharmaceutical uses” (AUCKLAND UNISERVICES LIMITED, priority 2017, dated 2021).
“And” between values parts separate entries of the source, which are not always exact repeats. Equal entries are not always repeated. Where two headings read alike, the source gives them in different places.

Tests used:
[1] = test system: FGFR2-amplified SUM52 breast cancer cells; assay: Cell proliferation assay (SRB); assay type: cell-based
[2] = test system: FGFR4-amplified Hep3B hepatocellular carcinoma cells; assay: Cell proliferation assay (SRB); assay type: cell-based; conditions: read-out: Cellular Anti-proliferative IC50, Hep3B
[3] = test system: FGFR3-amplified SW780 bladder cancer cells; assay: Cell proliferation assay (SRB)
FGFR4 = biological target: T1, FGFR4 (Homo sapiens, UniProt P22455); assay: Isolated enzyme FRET-based Z-Lyte kinase inhibition assay; assay type: biochemical; conditions: means from 3 independent experiments; read-out: Isolate Enzyme Inhibition IC50, FGFR4
T1 construct: purchased Invitrogen
Description: (§1) FGFR1-4 and the Z-Lyte Kinase Assay Kit were purchased from Invitrogen. The concentration gradients from 5.1×10^−11 to 1.0×10^−6 mol/L were used for all the test compounds. The experiments were performed according to the instructions of the manufacturer.
(§2) FGFR1-4 isolated enzyme activity was determined using the FRET-based Z-Lyte kinase inhibition assay. The data are the means from 3 independent experiments.

FGFR2 = biological target: T2, FGFR2 (Homo sapiens, UniProt P21802); assay: as above; assay type: biochemical; conditions: means from 3 independent experiments; read-out: Isolate Enzyme Inhibition IC50, FGFR2
T2 construct: purchased Invitrogen
Description: as §1, §2

FGFR3 = biological target: T3, FGFR3 (Homo sapiens, UniProt P22607); assay: as above; assay type: biochemical; conditions: means from 3 independent experiments; read-out: Isolate Enzyme Inhibition IC50, FGFR3
T3 construct: purchased Invitrogen
Description: as §1, §2

SW780 cells = assay: Oxic and anoxic anti-proliferative activity of the prodrugs; assay type: cell-based; conditions: Homo sapiens, SW780; oxic conditions; read-out: Cellular Anti-proliferative IC50, SW780, Oxic
[4] = test system: SW780 (FGFR3-amplified bladder cancer) xenograft; assay: Anti-tumour activity, SW780 xenograft; assay type: in vivo, NIH-III nude mice; conditions: 30 umol/kg, q3dx4, IP
Description: Specific pathogen-free homozygous female NIH-III nude mice (Charles River Laboratories, Wilmington, Mass.) were inoculated subcutaneously with a single cell suspension of SW780 cells (8×10^6 cells/100 μL with Matrigel; right flank) or SNU-16 cells (10×10^6 cells/100 μL; right flank). When tumour xenografts were established (typically 7-14 days for SW780 and 21-28 days for SNU-16) mice were randomized to treatment groups. Test compounds of the present invention were prepared in Water for Injection (WFI). Mice were dosed by intraperitoneal injection (0.01-0.03 ml/g) using the stated schedules and dose levels. […] Tumour size and body weights were measured at regular intervals. Tumour volume was calculated as […] (length×width^2)/6.

H520 cells = assay: Oxic and anoxic anti-proliferative activity of the prodrugs; conditions: for Hypoxic Cytotoxicity Ratio (HCR), H520: ratio of oxic and anoxic IC50
SUM52 cells = assay: as above; conditions: for Hypoxic Cytotoxicity Ratio (HCR), SUM52: ratio of oxic and anoxic IC50
[5] = read-out: Cellular Anti-proliferative IC50, SUM52, 5 days drug exposure
[6] = read-out: Cellular Anti-proliferative IC50, SW780, 5 days drug exposure
[7] = read-out: Cellular Anti-proliferative IC50, H520, Oxic, oxic conditions
[8] = read-out: Cellular Anti-proliferative IC50, SUM52, Anoxic, 4 hours of anoxia, remainder of assay oxic
[9] = read-out: Cellular Anti-proliferative IC50, SUM52, Oxic, oxic conditions
[10] = read-out: Cellular Anti-proliferative IC50, H520, Anoxic, 4 hours of anoxia, remainder of assay oxic

T1 sequence (P22455 22-802): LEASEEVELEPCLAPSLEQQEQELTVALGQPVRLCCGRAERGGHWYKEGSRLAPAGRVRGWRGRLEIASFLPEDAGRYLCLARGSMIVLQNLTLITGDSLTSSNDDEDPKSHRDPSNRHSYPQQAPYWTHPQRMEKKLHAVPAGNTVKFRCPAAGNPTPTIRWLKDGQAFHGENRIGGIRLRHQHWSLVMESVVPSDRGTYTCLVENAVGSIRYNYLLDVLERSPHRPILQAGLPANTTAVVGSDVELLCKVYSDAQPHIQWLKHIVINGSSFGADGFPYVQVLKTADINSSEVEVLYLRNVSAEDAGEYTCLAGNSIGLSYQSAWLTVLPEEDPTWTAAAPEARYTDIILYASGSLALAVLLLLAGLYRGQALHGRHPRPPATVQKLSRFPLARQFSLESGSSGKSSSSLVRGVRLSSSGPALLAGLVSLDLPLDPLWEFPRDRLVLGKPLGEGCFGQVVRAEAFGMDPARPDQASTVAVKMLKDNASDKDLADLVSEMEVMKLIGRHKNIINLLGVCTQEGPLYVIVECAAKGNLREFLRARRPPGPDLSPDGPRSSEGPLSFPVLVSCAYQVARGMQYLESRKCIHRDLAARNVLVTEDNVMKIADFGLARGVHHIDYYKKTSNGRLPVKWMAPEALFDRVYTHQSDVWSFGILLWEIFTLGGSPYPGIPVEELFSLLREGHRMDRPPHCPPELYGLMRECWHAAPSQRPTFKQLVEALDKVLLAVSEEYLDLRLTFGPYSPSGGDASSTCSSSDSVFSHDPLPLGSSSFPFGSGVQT
T3 sequence (P22607 23-806): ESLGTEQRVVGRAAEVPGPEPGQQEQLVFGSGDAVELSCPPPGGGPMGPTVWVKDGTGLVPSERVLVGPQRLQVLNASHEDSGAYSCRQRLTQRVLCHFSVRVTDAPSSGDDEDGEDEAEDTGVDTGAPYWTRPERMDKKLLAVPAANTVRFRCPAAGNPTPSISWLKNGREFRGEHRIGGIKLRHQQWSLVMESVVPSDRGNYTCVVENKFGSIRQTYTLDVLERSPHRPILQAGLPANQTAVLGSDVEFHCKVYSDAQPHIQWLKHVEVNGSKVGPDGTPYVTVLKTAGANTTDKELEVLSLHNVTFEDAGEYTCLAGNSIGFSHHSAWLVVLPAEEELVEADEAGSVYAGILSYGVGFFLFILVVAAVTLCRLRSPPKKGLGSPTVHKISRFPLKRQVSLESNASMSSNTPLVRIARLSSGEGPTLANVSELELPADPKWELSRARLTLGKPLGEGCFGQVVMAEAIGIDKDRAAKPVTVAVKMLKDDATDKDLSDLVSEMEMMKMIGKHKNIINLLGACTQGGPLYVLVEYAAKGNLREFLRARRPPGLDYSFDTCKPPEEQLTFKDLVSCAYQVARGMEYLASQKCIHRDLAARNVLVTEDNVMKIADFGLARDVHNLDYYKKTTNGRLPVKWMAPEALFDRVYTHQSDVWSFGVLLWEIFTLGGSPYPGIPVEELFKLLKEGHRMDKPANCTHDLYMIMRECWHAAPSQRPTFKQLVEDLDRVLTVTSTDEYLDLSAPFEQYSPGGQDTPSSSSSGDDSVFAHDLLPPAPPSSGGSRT
T2 sequence (P21802 22-821): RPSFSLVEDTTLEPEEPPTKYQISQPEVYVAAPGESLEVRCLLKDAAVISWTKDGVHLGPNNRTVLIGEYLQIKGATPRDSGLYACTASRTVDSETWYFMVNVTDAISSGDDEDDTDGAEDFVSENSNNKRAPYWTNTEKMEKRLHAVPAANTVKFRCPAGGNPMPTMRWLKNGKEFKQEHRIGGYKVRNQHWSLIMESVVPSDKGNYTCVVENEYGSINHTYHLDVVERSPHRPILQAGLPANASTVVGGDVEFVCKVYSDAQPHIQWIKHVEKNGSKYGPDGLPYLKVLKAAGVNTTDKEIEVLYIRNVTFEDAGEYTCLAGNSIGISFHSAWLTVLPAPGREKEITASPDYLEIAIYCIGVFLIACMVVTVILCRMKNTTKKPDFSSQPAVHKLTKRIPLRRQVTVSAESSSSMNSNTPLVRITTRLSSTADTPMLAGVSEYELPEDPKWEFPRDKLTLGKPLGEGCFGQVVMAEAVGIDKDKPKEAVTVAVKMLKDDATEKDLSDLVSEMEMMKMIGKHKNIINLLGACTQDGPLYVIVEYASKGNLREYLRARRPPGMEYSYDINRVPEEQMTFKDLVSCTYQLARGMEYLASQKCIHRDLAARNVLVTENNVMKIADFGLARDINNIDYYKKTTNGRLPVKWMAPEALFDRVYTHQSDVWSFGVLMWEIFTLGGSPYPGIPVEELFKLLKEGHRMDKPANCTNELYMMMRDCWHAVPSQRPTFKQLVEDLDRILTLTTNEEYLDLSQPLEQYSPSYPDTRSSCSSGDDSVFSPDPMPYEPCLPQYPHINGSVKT

CNc1ncc2c(n1)N([C@H]1CCCN(C(=O)/C=C/CN(C)C)C1)C(=O)N(c1c(Cl)c(OC)cc(OC)c1Cl)C2 [Compound 100, (S,E)-3-(2,6-dichloro-3,5-dimethoxyphenyl)-1-(1-(4-(dimethylamino)but-2-enoyl)piperidin-3-yl)-7-(methylamino)-3,4-dihydropyrimido[4,5-d]pyrimidin-2(1H)-one]
IC50 [1, 5]: 3.3 nM | IC50 ([2]; Homo sapiens, Hep3B): 245 nM | IC50 [3, 6]: 28 nM

CNc1ncc2c(n1)N([C@H]1CCCN(C(=O)/C=C/CN(C)C)C1)C(=O)N(c1c(Cl)c(OC)cc(OC)c1Cl)C2 [Compound 101, (S,E)-3-(2,6-dichloro-3,5-dimethoxyphenyl)-1-(1-(4-(dimethylamino)but-2-enoyl)piperidin-3-yl)-7-(methylamino)-3,4-dihydropyrimido[4,5-d]pyrimidin-2(1H)-one]
IC50 (FGFR4): < 100 nM | IC50 [1, 5]: 9 nM | IC50 [2]: 163 nM | IC50 [3, 6]: 59 nM

CNc1ncc2c(n1)N([C@@H]1CCN(C(=O)/C=C/CN(C)C)C1)C(=O)N(c1c(Cl)c(OC)cc(OC)c1Cl)C2 [Compound 102, (R,E)-3-(2,6-dichloro-3,5-dimethoxyphenyl)-1-(1-(4-(dimethylamino)but-2-enoyl)pyrrolidin-3-yl)-7-(methylamino)-3,4-dihydropyrimido[4,5-d]pyrimidin-2(1H)-one]
IC50 (FGFR2): 15 nM | IC50 (FGFR3): 703 nM | IC50 (FGFR4): > 1000 nM | IC50 ([1]; SUM52, 120 h, read-out: Cellular Anti-proliferative IC50, SUM52, 5 days drug exposure): 51 nM | IC50 ([2]; Homo sapiens, Hep3B): 1430 nM | IC50 ([3]; Homo sapiens, SW780, 120 h, read-out: Cellular Anti-proliferative IC50, SW780, 5 days drug exposure): 700 nM

COc1cc(Nc2ncc3c(n2)N(C2CCN(C(=O)/C=C/CN(C)C)CC2)C(=O)N(c2c(Cl)c(OC)cc(OC)c2Cl)C3)ccc1F [Compound 118, (E)-3-(2,6-dichloro-3,5-dimethoxyphenyl)-1-(1-(4-(dimethylamino)but-2-enoyl)piperidin-4-yl)-7-((4-fluoro-3-methoxyphenyl)amino)-3,4-dihydropyrimido[4,5-d] pyrimidin-2(1H)-one]
IC50 (FGFR3): 2.4 nM | IC50 (FGFR4): < 100 nM and 9.6 nM

CNc1ncc2c(n1)N(CCCNC(=O)/C=C/CN(C)C)C(=O)N(c1c(Cl)c(OC)cc(OC)c1Cl)C2 [Compound 125, (E)-N-(3-(3-(2,6-dichloro-3,5-dimethoxyphenyl)-7-(methylamino)-2-oxo-3,4-dihydropyrimido[4,5-d]pyrimidin-1(2H)-yl)propyl)-4-(dimethylamino)but-2-enamide]
IC50 (FGFR2): 6.5 nM | IC50 (FGFR3): 51 nM | IC50 (FGFR4): > 1000 nM

CNc1ncc2cc(-c3c(Cl)c(OC)cc(OC)c3Cl)c(=O)n(C3CCN(C(=O)/C=C/C[N+](C)(C)Cc4c([N+](=O)[O-])ncn4C)CC3)c2n1.[Br-] [Compound 208, (E)-4-(4-(6-(2,6-dichloro-3,5-dimethoxyphenyl)-2-(methylamino)-7-oxopyrido[2,3-d]pyrimidin-8(7H)-yl)piperidin-1-yl)-N,N-dimethyl-N-((1-methyl-4-nitro-1H-imidazol-5-yl)methyl)-4-oxobut-2-en-1-aminium bromide]
IC50 (SW780 cells): 2580 nM | anti-tumour activity (median tumour growth delay) [4]: significant anti-tumour activity | time for tumours to reach 4 times relative tumour volume (RTV4) ([4]; control 12 days): ~24 days | IC50 (H520 cells; [7]): 4150 nM | Hypoxic Cytotoxicity Ratio (HCR), SUM52 (SUM52 cells): 5 | IC50 (SUM52 cells; [8]): 3 nM | IC50 (SUM52 cells; [9]): 13 nM

COc1cc(OC)c(Cl)c(-c2cc3cnc(NC(C)C)nc3n(C3CCN(C(=O)/C=C/C[N+](C)(C)Cc4c([N+](=O)[O-])ncn4C)CC3)c2=O)c1Cl.[Br-] [Compound 209, (E)-4-(4-(6-(2,6-dichloro-3,5-dimethoxyphenyl)-2-(isopropylamino)-7-oxopyrido[2,3-d]pyrimidin-8(7H)-yl)piperidin-1-yl)-N,N-dimethyl-N-((1-methyl-4-nitro-1H-imidazol-5-yl)methyl)-4-oxobut-2-en-1-aminium bromide]
IC50 (SW780 cells): 1570 nM | anti-tumour activity (median tumour growth delay) [4]: significant anti-tumour activity | Hypoxic Cytotoxicity Ratio (HCR), H520 (H520 cells): 36 | IC50 (H520 cells; [10]): 41 nM | IC50 (H520 cells; [7]): 1480 nM | Hypoxic Cytotoxicity Ratio (HCR), SUM52 (SUM52 cells): 68 | IC50 (SUM52 cells; [8]): 4 nM | IC50 (SUM52 cells; [9]): 269 nM

COc1cc(OC)c(Cl)c(-c2cc3cnc(Nc4ccccc4)nc3n(C3CCN(C(=O)/C=C/C[N+](C)(C)Cc4c([N+](=O)[O-])ncn4C)CC3)c2=O)c1Cl.[Br-] [Compound 211, (E)-4-(4-(6-(2,6-dichloro-3,5-dimethoxyphenyl)-7-oxo-2-(phenylamino)pyrido[2,3-d]pyrimidin-8(7H)-yl)piperidin-1-yl)-N,N-dimethyl-N-((1-methyl-4-nitro-1H-imidazol-5-yl)methyl)-4-oxobut-2-en-1-aminium bromide]
IC50 (SW780 cells): 754 nM | anti-tumour activity (median tumour growth delay) [4]: significant anti-tumour activity | Hypoxic Cytotoxicity Ratio (HCR), H520 (H520 cells): 20 | IC50 (H520 cells; [10]): 41 nM | IC50 (H520 cells; [7]): 817 nM | Hypoxic Cytotoxicity Ratio (HCR), SUM52 (SUM52 cells): 16 | IC50 (SUM52 cells; [8]): 12 nM | IC50 (SUM52 cells; [9]): 199 nM

COc1cc(OC)c(Cl)c(-c2cc3cnc(NC(C)C)nc3n(Cc3cccc(NC(=O)/C=C/C[N+](C)(C)Cc4c([N+](=O)[O-])ncn4C)c3)c2=O)c1Cl.[Br-] [Compound 213, (E)-4-((3-((6-(2,6-dichloro-3,5-dimethoxyphenyl)-2-(isopropylamino)-7-oxopyrido[2,3-d]pyrimidin-8(7H)-yl)methyl)phenyl)amino)-N,N-dimethyl-N-((1-methyl-4-nitro-1H-imidazol-5-yl)methyl)-4-oxobut-2-en-1-aminium bromide]
anti-tumour activity (median tumour growth delay) [4]: significant anti-tumour activity | Hypoxic Cytotoxicity Ratio (HCR), SUM52 (SUM52 cells): 5 | IC50 (SUM52 cells; [8]): 7 nM | IC50 (SUM52 cells; [9]): 40 nM
